Measured values reported in patent US8465808B2, “Process for depositing an organic acid on the surface of a metal composition” (Duquesne University of the Holy Spirit, priority 2005, dated 2013).

Columns and labels:
[1] = cited from earlier work
[2] = tested on: 3T3 Swiss Albino embryo fibroblast cells; test: Live/dead viability of cells on modified SS316L substrates; format: cell-based; settings: 3T3 fibroblasts, 10,000 cells/well, 24 hours on SAM-modified SS316L
Description: For cell experiments, 3T3 Swiss Albino embryo fibroblast cells of mouse were obtained from ATCC (CCL-92). The cells were grown in Dulbecco's modified Eagle medium (DMEM, Invitrogen Corp.) supplemented with 10% calf serum, 1% penicillin/[…] antibiotic. The cells were passaged every 3 days and were discarded after 15 passages. Cells were removed from the T 75 flasks by trypsinization, washed once with DMEM, suspended in culture medium. The modified SS316L substrates were placed in a 24 well plate and were sterilized with 70% ethanol for 10 mins and then rinsed with sterile distilled water 3 times. The sterilized substrates were left in the hood to dry. The suspended 3T3 Swiss Albino embryo fibroblast cells were then counted with a Haemocytometer after staining them with trypan blue and seeded at the density of 10,000 cells/well into each of the wells containing the substrates modified with respective acids After incubating the cells in humidified air with 5% CO2 for 24 hours at 37° C., the samples were rinsed with PBS three times and analyzed for live dead cells. […] This calcein is retained in the live cells and produces a green fluorescence. Ethidium homodimer is excluded by the intact plasma membrane of live cells but enters cells with damaged membranes (dead cells), binds to nucleic acid and produces a bright red fluorescence. […]

[3] = Static contact angle goniometry with water on modified SS316L; format: physicochemical; settings: SAM of the acid on SS316L; for Contact angle values: static, average of at least 3 samples, 6 readings each
Description: Static contact angles were measured using VCA Optima Goniometry to determine the wettability of the surface. Measurements were made using the procedure described by Bain et al. (J. Am. Chem. Soc. 1989; Vol. 111, pgs. 321-335), known by those skilled in the art. About 1 μl drop of deionized water (purified with a Millipore Milli Q plus system) was formed at the end of the micro-liter syringe and brought into contact with the surface. Average contact angle value±standard deviation of 6 readings each on at least 3 samples have been reported.

[4] = tested on: 3T3 Swiss Albino embryo fibroblast cells; test: Cell adhesion (number of cells attached) on modified SS316L substrates; format: cell-based, mouse; settings: 3T3 cells, 24 hours, fluorescence microscopy
Description: For cell experiments, 3T3 Swiss Albino embryo fibroblast cells of mouse were obtained from ATCC (CCL-92). The cells were grown in Dulbecco's modified Eagle medium (DMEM, Invitrogen Corp.) supplemented with 10% calf serum, 1% penicillin/[…] antibiotic. The cells were passaged every 3 days and were discarded after 15 passages. Cells were removed from the T 75 flasks by trypsinization, washed once with DMEM, suspended in culture medium. The modified SS316L substrates were placed in a 24 well plate and were sterilized with 70% ethanol for 10 mins and then rinsed with sterile distilled water 3 times. The sterilized substrates were left in the hood to dry. The suspended 3T3 Swiss Albino embryo fibroblast cells were then counted with a Haemocytometer after staining them with trypan blue and seeded at the density of 10,000 cells/well into each of the wells containing the substrates modified with respective acids After incubating the cells in humidified air with 5% CO2 for 24 hours at 37° C., the samples were rinsed with PBS three times and analyzed for live dead cells. Viability/cytotoxicity kit (L-3224) obtained from Molecular Probes was used to provide a simultaneous determination of live and dead cells. The assay contains Calcein AM and ethidium homodimer dyes. The live cells are identified by the enzymatic conversion of the non-fluorescent cell permeant calcein AM to intensely fluorescent calcein. This calcein is retained in the live cells and produces a green fluorescence. Ethidium homodimer is excluded by the intact plasma membrane of live cells but enters cells with damaged membranes (dead cells), binds to nucleic acid and produces a bright red fluorescence. Live cells are in green and dead cells in red when viewed under fluorescent microscope.
After washing with PBS, 0.5 ml of the live/dead stain was added to each well and the well plate was covered with aluminum foil and placed in the incubator for about 30 minutes. Three samples of each type of modification were used for every set and four such sets were performed. Each sample was mounted on the microscope slide and viewed under fluorescence Nikon Eclipse microscope at 10× magnification. Five different spots were observed and counted for cells on each sample and average value used for calculation of significance. Viability calculations were performed on each sample by counting the number of live cells in the total number of cells.
ANOVA was used to determine the statistical difference between the means of data sets for cell experiments with the modified substrates and multiple comparisons of the sample means was performed using Bonferroni post test using confidence level of 0.05.
In order to determine the stability of the interfacial systems developed in this work under physiological conditions and their viability for use in biomedical devices (and more specifically medically implantable devices), cell adhesion studies using fibroblasts were conducted on four sets of independent experiments with three samples each of all functionalized SAM with carboxylate and phosphonate head groups. The substrates were modified with —CH3, —COOH, —OH terminated phosphonic acids and —CH3, —OH, —COOH and —NH2 terminated carboxylic acids by the solution deposition process of the present invention as set forth herein. […] The samples were then rinsed with PBS three times and analyzed for live dead cells using the Viability/cytotoxicity kit. […]

| Contact angle values [3] | Molecule | pKa [1] | Contact angle compared with control SS316L substrate [3] | further results |
| --- | --- | --- | --- | --- |
|  | CCCCCCCCCCCCCCCCCC(=O)O [Heptadecyl Carboxylic acid] | pKa = 10 |  |  |
|  | CCCCCCCCCCCCCCCCCCS(=O)(=O)O [Octadecyl sulfonic acid] | pKa = 2 |  |  |
| 104.1° | CCCCCCCCCCCCCCCCCCC(=O)O [ODCA, octadecylcarboxylic acid] | pKa = 10 |  | Contact angle values ([3]; listed as Octadecylcarboxylic acid): 104 °; Shape of the cells on the surface [4]: rounded and small |
|  | 12-aminododecanecarboxylic acid [C12NH2—C] |  | lower contact angle values than the control |  |
| 42° | O=C(O)CCCCCCCCCCCCC(=O)O [C14COOH—C, 1,12-dodecanedicarboxylic acid] |  | lower contact angle values than the control |  |
| 52.3° | O=C(O)CCCCCCCCCCCCP(=O)(O)O [C12COOH—P, 12-carboxydodecanephosphonic acid] |  |  |  |
| 38.4° | NCCCCCCCCCCCCC(=O)O [C12NH2—C, 12-aminododecanecarboxylic acid] |  |  | Number of cells attached to the modified SS316L (in words) [4]: close to that in the control |

| Molecule | Contact angle values [3] | pKa [1] | Contact angle compared with control SS316L substrate [3] | further results |
| --- | --- | --- | --- | --- |
| O=P(O)(O)CCCCCCCCCCCO [C11OH—P, 11-hydroxyundecanephosphonic acid] | 59.8° |  |  | Viability (live cells / total number of cells) [2]: about 92% |
| CCCCCCCCCCCCCCCCCCP(=O)(O)O [ODPA, octadecylphosphonic acid] | 108° | pka = 4 |  | Viability (live cells / total number of cells) [2]: about 92%; Number of cells attached to the modified SS316L (in words) [4]: fewer cell attachments than ODCA; Shape of the cells on the surface [4]: rounded and small; Number of cells attached to the modified SS316L (in words) ([4]; listed as methyl terminated phosphonic acid): the least in number |
| O=C(O)CCCCCCCCCCCCCCCO [C16OH—C, 16-hydroxyhexadecanoic acid] | 48.6° |  | lower contact angle values than the control |  |
